Measurements reported in ChEMBL document CHEMBL1122521, “Nucleic acid related compounds. 47. Synthesis and biological activities of pyrimidine and purine "acyclic" nucleoside analogues” (J Med Chem, 1984).
In brackets after ≈: the same amount, converted by molar mass.

test system: Vaccinia virus; test: Concentration required to reduce cytopathogenicity of vaccinia virus by 50% in primary rabbit kidney (PRK) cells; format: functional, Orthopoxvirus vaccinia

Row | Compound | ID50
1 | CN(C)c1nc2c(=O)[nH]c(N)nc2n1COCCO | >=300 ug ml-1
2 | CC(=O)OCCOCn1cnc2c(Cl)nc(N)nc21 | 70 µg/mL (≈ 245 µM)
3 | Nc1nc(O)c2nc(N3CCCCC3)n(COCCO)c2n1 | >400 µg/mL
4 | O=c1[nH]c(=O)n([C@H]2C[C@H](O)[C@@H](CO)O2)cc1I [IDOXURIDINE] | 0.2 µg/mL (≈ 0.565 µM)
5 | Nc1nc2c(nc(Br)n2COCCO)c(=O)[nH]1 | >400 µg/mL
6 | Nc1nc2c(nc(N)n2COCCO)c(=O)[nH]1 | >100 µg/mL
7 | CC(=O)OCCOCn1cnc2c(Cl)ncnc21 | 20 µg/mL (≈ 73.9 µM)
8 | O=c1[nH]c(=O)n([C@H]2C[C@H](O)[C@@H](CO)O2)cc1/C=C/Br [BRIVUDINE] | 7 µg/mL (≈ 21 µM)
9 | Cc1nc2c(O)nc(N)nc2n1COCCO | >400 µg/mL
10 | Nc1ncnc2c1ncn2COCCO | 20 µg/mL (≈ 95.6 µM)
11 | Nc1nc2c(nc(O)n2COCCO)c(=O)[nH]1 | >400 µg/mL
12 | Nc1nc(Cl)c2ncn(COCCO)c2n1 | 70 µg/mL (≈ 287 µM)
13 | Nc1ccn(COCCO)c(=O)n1 | >400 µg/mL
14 | Nc1nc2c(nc(I)n2COCCO)c(=O)[nH]1 | >400 µg/mL
15 | Nc1nc2c(ncn2COCCO)c(=O)[nH]1 [ACYCLOVIR] | 50 µg/mL (≈ 222 µM)
16 | CNc1nc2c(=O)[nH]c(N)nc2n1COCCO | >400 µg/mL
